Data: patent US8389509B2, “Substituted pyrazole compounds” (Bristol-Myers Squibb Company, priority 2009, dated 2013)
Structures can show the parent of a compound that is named as a salt.

Key:
S1P1 [1] = target: T1, S1P1 (Homo sapiens, UniProt P21453); assay: Method A: Receptor [35S] GTPγS Binding Assay, S1P1; format: biochemical; details: ratio of S1P3 EC50 to S1P1 EC50, Method A
T1 construct: expressed in transfected cells; host or cells: CHO cells
Description: Method A: Receptor [35S] GTPγS Binding Assays
Compounds were loaded in a 384 FALCON® v-bottom plate (0.5 μl/well in a 3-fold dilution). Membranes prepared from S1P1/CHO cells or EDG3-Gal5-bla HEK293T cells were added to the compound plate (40 μl/well, final protein 3 μg/well) with MULTIDROP®. [^35S]GTP (1250 Ci/mmol, Perkin Elmer) was diluted in assay buffer: 20 mM HEPES, pH7.5, 10 mM MgCl2, 150 mM NaCl, 1 mM EGTA, 1 mM DTT, 10 μM GDP, 0.1% fatty acid free BSA, and 10 μg/ml Saponin to 0.4 nM. 40 μl of the [^35S] GTP solution was added to the compound plate with a final concentration of 0.2 nM. The reaction was kept at room temperature for 45 min. At the end of incubation, all the mixtures in the compound plate were transferred to a 384 well FB filter plates via GPCR robot system. The filter plate was washed with water 4 times by using the modified manifold Embla plate washer and dried at 60° C. for 45 min. 30 μA of MicroScint 20 scintillation fluid was added to each well for counting at Packard TOPCOUNT®. EC50 is defined as the agonist concentration that corresponds to 50% of the Ymax (maximal response) obtained for each individual compound tested.
(§1) Compounds of the present invention and Comparative Compound A were tested in the Receptor [^35S] GTPγS Binding Assays (Method A) and Receptor [^35S] In some instances, the value is an average of multiple experiments where N is the number of experiments conducted that provided satisfactory dose response curves. When more than one batch of an example was tested, the value presented is from a batch which allowed a comparison of GTPγS S1P1 and GTPγS S1P3 in which the most number of experiments were performed. Preferably, the same batch was examined in Method A and Method B. Data was not averaged across different batches of an example compound.

S1P1 [2] = target: T1, S1P1; assay: Method B: Receptor [35S] GTPγS SPA Binding Assay, S1P1; format: biochemical; details: for GTPγS S1P3/S1P1 (Method B): ratio of S1P3 EC50 to S1P1 EC50, Method B; for EC50: Method B (SPA), S1P1 transfected CHO cell membranes
Description: (§2) Method B: Receptor [^35S] GTPγS SPA Binding Assays
(§3) Membranes prepared from S1P1 or S1P3 transfected CHO cells (2 μg protein) were incubated in 96-well white plates (CORNING® 3693) with test compounds diluted in DMSO, in 50 μl of reaction mixture containing 7.5 μA WGA-PVT beads (20 mg/ml), and 5 μM GDP, 20 mM HEPES pH 7.4, 100 mM NaCl, 1 mM EDTA, 5 mM MgCl2, 10 μg/ml saponin, 0.1% BSA, and 1 μM leupeptin. The assay was initiated with the addition of […] of 0.2 nM [^35S]-GTPγS (1250 Ci/mmol; NEN) in assay buffer. After 90 min incubation at room temperature, spin the plate at 1000 rpm for 5 min. The bound radionuclides were measured at TOPCOUNT®, expressed as % response relative to S1P (1 μM) activation. Data was analyzed using the four parameter logistic equation in Excel. The four parameters in the equation, Y=A+((B−A)/(1+((EC50/X)^D))), are described as following: A is the Y value (agonist activity) at the bottom plateau; B is the Y value at the top plateau; EC50 is the X value (agonist concentration) when the response is halfway between bottom and top; D is Hill coefficient. Curves were not generated for compounds having Ymax values were below 50%.
as §1

S1P1 [3] = target: T1, S1P1; assay: S1P1 Binding Assay (33P-S1P competition, CHO membranes); details: membranes of CHO cells expressing human S1P1, 33P-S1P ligand; read-out: S1P1 B IC50
Description: Membranes were prepared from CHO cells expressing human S1P1. Cells were dissociated in buffer containing 20 mM HEPES, pH 7.5, 50 mM NaCl, 2 mM EDTA and Protease Inhibitor cocktail (Roche), and disrupted on ice using the Polytron homogenizer. The homogenate was centrifuged at 20,000 rpm (48,000 g) and the supernatant was discarded. The membrane pellets were resuspended in buffer containing 50 mM HEPES, pH 7.5, 100 mM NaCl, 1 mM MgCl2, 2 mM EDTA and stored in aliquots at −80° C. after protein concentration determination.
Membranes (2 μg/well) and 0.03 nM final concentration of ^33P-S1P ligand (1 mCi/ml, American Radiolabeled Chemicals) were added to the compound plates. Binding was performed for 60 min at room temperature, terminated by collecting the membranes onto GF/B filter plates, and radioactivity was measured by TOPCOUNT®. The competition data of the test compounds over a range of concentrations was plotted as percentage inhibition of radioligand specific binding. The IC50 is defined as the concentration of competing ligand needed to reduce specific binding by 50%.
Compounds of the present invention and Comparative Compound A were tested in the S1P1 binding assay described hereinabove and the results rounded to two digits, shown in Table A were obtained. In some instances, the value is an average of multiple experiments where N is the number of experiments conducted that provided satisfactory dose response curves. When more than one batch of an example was tested, the value presented is from the batch which allowed a comparison of GTPγS S1P1 and GTPγS S1P3 in Method A (Data shown in Table B). Data was not averaged across different batches of an example compound.

S1P3 = S1P3 (Homo sapiens, UniProt Q99500); assay: Method B: Receptor [35S] GTPγS SPA Binding Assay, S1P3; format: biochemical; design: expressed in transfected cells; host or cells: CHO cells; details: S1P3 transfected CHO cell membranes
Chain of S1P3 (Q99500 whole entry): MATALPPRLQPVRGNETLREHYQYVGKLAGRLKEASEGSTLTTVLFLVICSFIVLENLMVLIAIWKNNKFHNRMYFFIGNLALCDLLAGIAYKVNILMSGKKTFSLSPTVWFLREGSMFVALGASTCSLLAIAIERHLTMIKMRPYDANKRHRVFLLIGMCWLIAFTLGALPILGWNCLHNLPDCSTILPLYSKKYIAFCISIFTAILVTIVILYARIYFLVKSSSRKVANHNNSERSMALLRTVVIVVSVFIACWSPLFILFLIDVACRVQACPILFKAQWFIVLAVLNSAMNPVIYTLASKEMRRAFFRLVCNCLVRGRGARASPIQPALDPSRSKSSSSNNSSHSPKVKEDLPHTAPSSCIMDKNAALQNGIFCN
Description: as §2, §3, §1

T1 sequence (P21453 whole entry): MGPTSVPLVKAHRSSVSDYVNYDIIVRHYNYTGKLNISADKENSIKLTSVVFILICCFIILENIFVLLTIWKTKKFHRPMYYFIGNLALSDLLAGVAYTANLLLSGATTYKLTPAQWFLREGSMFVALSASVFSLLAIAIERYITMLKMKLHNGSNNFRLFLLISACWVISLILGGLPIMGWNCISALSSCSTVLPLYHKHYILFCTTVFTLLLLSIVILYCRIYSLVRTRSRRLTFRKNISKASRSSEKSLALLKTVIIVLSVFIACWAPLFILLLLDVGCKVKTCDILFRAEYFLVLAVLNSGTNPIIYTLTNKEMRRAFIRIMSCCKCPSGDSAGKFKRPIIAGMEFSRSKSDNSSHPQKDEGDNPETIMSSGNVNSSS

Structure (SMILES)	GTPγS S1P3/S1P1 (Method A) (S1P1 [1])	GTPγS S1P3/S1P1 (Method B) (S1P1 [2])	IC50 (S1P1 [3]) [nM]	EC50 (S1P1 [2]) [nM]	EC50 (S1P3) [nM]
CCNc1c(-c2nc(-c3ccc(CN4CC(C(=O)O)C4)cc3)no2)cnn1-c1ccccc1 [Example 4, 1-(4-(5-(5-(ethylamino)-1-phenyl-1H-pyrazol-4-yl)-1,2,4-oxadiazol-3-yl)benzyl)azetidine-3-carboxylic acid]	–	2,100	1.1	0.19	400
CC(C)CNc1c(-c2nc(-c3ccc(CN4CC(C(=O)O)C4)cc3)no2)cnn1-c1ccccc1 [Example 12, 1-(4-(5-(5-(Isobutylamino)-1-phenyl-1H-pyrazol-4-yl)-1,2,4-oxadiazol-3-yl)benzyl)azetidine-3-carboxylic acid]	–	35,000	1.7	0.28	9800
O=C(O)C1CN(Cc2ccc(-c3noc(-c4cnn(-c5ccccn5)c4-c4ccccc4)n3)cc2)C1 [Example 10, 1-(4-(5-(5-phenyl-1-(pyridin-2-yl)-1H-pyrazol-4-yl)-1,2,4-oxadiazol-3-yl)benzyl)azetidine-3-carboxylic acid]	–	2,600	1.1	0.42	1100
CC(C)Nc1c(-c2nc(-c3ccc(CN4CC(C(=O)O)C4)cc3)no2)cnn1-c1ccccc1 [Example 3, 1-(4-(5-(5-(isopropylamino)-1-phenyl-1H-pyrazol-4-yl)-1,2,4-oxadiazol-3-yl)benzyl)azetidine-3-carboxylic acid]	–	11,000	0.48	0.15	1700
CCCCNc1c(-c2nc(-c3ccc(CN4CC(C(=O)O)C4)cc3)no2)cnn1-c1ccccc1 [Example 13, 1-(4-(5-(5-(n-butylamino)-1-phenyl-1H-pyrazol-4-yl)-1,2,4-oxadiazol-3-yl)benzyl)azetidine-3-carboxylic acid]	–	300	3.1	0.17	51
O=C(O)C1CN(Cc2ccc(-c3noc(-c4cnn(-c5ccccc5)c4Br)n3)cc2)C1 [Example 14, 1-(4-(5-(5-Bromo-1-phenyl-1H-pyrazol-4-yl)-1,2,4-oxadiazol-3-yl)benzyl)azetidine-3-carboxylic acid, 2,2,2-trifluoroacetic acid salt]	–	3,400	0.98	2.1	7100

Next, values leading:

GTPγS S1P3/S1P1 (Method A) (S1P1 [1])	GTPγS S1P3/S1P1 (Method B) (S1P1 [2])	IC50 (S1P1 [3]) [nM]	EC50 (S1P1 [2]) [nM]	EC50 (S1P3) [nM]	Structure (SMILES)
1.2	78	–	–	–	O=C(O)C1CN(Cc2ccc(-c3noc(-c4cc(-c5ccccc5)c(C(F)(F)F)s4)n3)cc2)C1 [Comp. A, 1-(4-(5-(4-phenyl-5-(trifluoromethyl)thiophen-2-yl)-1,2,4-oxadiazol-3-yl)benzyl)-azetidine-3-carboxylic acid, reference compound]
–	2,500	0.19	0.087	220	O=C(O)C1CN(Cc2ccc(-c3noc(-c4cnn(-c5ccccn5)c4C4CCCC4)n3)cc2)C1 [Example 7, 1-(4-(5-(5-cyclopentyl-1-(pyridin-2-yl)-1H-pyrazol-4-yl)-1,2,4-oxadiazol-3-yl)benzyl)azetidine-3-carboxylic acid]
–	1,100	–	1.9	2000	O=C(O)C1CN(Cc2ccc(-c3noc(-c4cnn(-c5ccccc5)c4Cl)n3)cc2)C1 [Example 11, 1-(4-(5-(5-chloro-1-phenyl-1H-pyrazol-4-yl)-1,2,4-oxadiazol-3-yl)benzyl)azetidine-3-carboxylic acid]
–	550	–	1.3	710	Cc1c(-c2nc(-c3ccc(CN4CC(C(=O)O)C4)cc3)no2)cnn1C1CCCCC1 [Example 9, 1-(4-(5-(1-cyclohexyl-5-methyl-1H-pyrazol-4-yl)-1,2,4-oxadiazol-3-yl)benzyl)azetidine-3-carboxylic acid]
